Results: the supplement of paper PMC12463676, “Small-molecule dissolution of stress granules by redox modulation benefits ALS models” (Nature Chemical Biology, 2025)

Experiments:
lipoamide = compound: NC(=O)CCCCC1CCSS1 [lipoamide]; test: thermal stability z-score vs DMSO; higher = more thermally stabilized by treatment; details: HeLa, lipoamide concentration 100 µM
Procedure: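 Cellular thermal proteome profiling in HeLa cells. Cells were treated with 100 µM lipoamide for 1 h, with or without 1 mM arsenate for a further 1 h, then heated to ten temperatures (37-66.3 °C), and soluble protein was quantified by TMT mass spectrometry relative to 0.1% DMSO controls. The thermal stability score (sum of log2 fold changes minus the abundance score) was transformed to a z-score; mean of n = 3 experiments.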

potassium arsenate = compound: O=[As]([O-])(O)O.[K+] [potassium arsenate]; test: as above; details: HeLa; arsenate concentration 1 mM
Procedure: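 Cellular thermal proteome profiling in HeLa cells treated with 1 mM arsenate for 1 h (DMSO pretreatment), heated to ten temperatures (37-66.3 °C). Soluble protein was quantified by TMT mass spectrometry relative to DMSO controls; the thermal stability score was transformed to a z-score; mean of n = 3 experiments.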

[1] = arsenate co-treatment: 1 mM arsenate 1 h
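Note: each temperature applied for 3 min, abundance score taken as mean log2 fold change at the two lowest temperatures, z-score obtained by mean subtraction and division by SD.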

## HOOK2 (UniProt Q96ED9)
Sequence of UniProt Q96ED9 (Q96ED9 whole entry): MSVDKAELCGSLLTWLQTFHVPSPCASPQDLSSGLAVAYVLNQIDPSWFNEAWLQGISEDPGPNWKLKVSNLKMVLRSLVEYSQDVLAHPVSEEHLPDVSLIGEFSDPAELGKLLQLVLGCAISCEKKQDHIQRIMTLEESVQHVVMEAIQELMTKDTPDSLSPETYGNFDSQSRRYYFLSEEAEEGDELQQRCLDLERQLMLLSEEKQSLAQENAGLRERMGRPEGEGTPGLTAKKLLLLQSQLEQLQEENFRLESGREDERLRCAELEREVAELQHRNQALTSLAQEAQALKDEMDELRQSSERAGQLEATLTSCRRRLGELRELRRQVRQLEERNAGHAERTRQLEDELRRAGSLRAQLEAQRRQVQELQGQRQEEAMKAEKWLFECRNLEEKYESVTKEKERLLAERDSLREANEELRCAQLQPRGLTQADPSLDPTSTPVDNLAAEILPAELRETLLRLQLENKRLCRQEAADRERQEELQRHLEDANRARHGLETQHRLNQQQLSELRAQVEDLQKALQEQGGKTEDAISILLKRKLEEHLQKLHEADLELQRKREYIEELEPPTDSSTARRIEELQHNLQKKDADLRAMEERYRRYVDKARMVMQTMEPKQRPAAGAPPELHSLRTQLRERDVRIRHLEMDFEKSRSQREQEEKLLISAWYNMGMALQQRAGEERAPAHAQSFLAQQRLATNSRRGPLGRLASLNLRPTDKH
lipoamide; [1]
  thermal stability z-score: 0.0635
lipoamide; arsenate co-treatment: none
  thermal stability z-score: -0.0859
Potassium arsenate
  thermal stability z-score: -0.0139

## HOOK3 (UniProt Q86VS8)
lipoamide; [1]
  thermal stability z-score: -0.807
lipoamide; arsenate co-treatment: none
  thermal stability z-score: -0.326
Potassium arsenate
  thermal stability z-score: -0.272

## HP1BP3 (UniProt Q5SSJ5)
lipoamide; [1]
  thermal stability z-score: -0.693
lipoamide; arsenate co-treatment: none
  thermal stability z-score: -0.792
Potassium arsenate
  thermal stability z-score: -1.08

## HPCAL1 (UniProt P37235)
lipoamide; [1]
  thermal stability z-score: 1.09
lipoamide; arsenate co-treatment: none
  thermal stability z-score: 1.31
Potassium arsenate
  thermal stability z-score: 0.342

## HPD (UniProt P32754)
Sequence of UniProt P32754 (P32754 whole entry, looked up): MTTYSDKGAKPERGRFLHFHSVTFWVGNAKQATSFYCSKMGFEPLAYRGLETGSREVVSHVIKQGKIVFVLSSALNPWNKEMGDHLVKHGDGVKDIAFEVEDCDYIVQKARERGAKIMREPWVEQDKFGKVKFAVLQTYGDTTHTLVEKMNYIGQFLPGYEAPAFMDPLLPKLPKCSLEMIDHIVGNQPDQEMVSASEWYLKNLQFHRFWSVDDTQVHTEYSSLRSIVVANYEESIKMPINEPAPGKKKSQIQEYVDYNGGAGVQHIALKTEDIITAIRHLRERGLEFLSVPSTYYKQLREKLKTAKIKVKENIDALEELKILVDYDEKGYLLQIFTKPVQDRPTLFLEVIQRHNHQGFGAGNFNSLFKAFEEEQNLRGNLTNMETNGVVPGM
lipoamide; [1]
  thermal stability z-score: 0.25
lipoamide; arsenate co-treatment: none
  thermal stability z-score: 0.117
Potassium arsenate
  thermal stability z-score: 1.61

## HPDL (UniProt Q96IR7)
lipoamide; [1]
  thermal stability z-score: 1.09
lipoamide; arsenate co-treatment: none
  thermal stability z-score: 0.497
Potassium arsenate
  thermal stability z-score: 1.13

## HPRT1 (UniProt P00492)
lipoamide; [1]
  thermal stability z-score: 0.468
lipoamide; arsenate co-treatment: none
  thermal stability z-score: 0.716
Potassium arsenate
  thermal stability z-score: 0.0837

## HPS3 (UniProt Q969F9)
lipoamide; [1]
  thermal stability z-score: -0.021
lipoamide; arsenate co-treatment: none
  thermal stability z-score: 0.206
Potassium arsenate
  thermal stability z-score: -0.255

## HPS5 (UniProt Q9UPZ3)
Sequence of UniProt Q9UPZ3 (Q9UPZ3 whole entry): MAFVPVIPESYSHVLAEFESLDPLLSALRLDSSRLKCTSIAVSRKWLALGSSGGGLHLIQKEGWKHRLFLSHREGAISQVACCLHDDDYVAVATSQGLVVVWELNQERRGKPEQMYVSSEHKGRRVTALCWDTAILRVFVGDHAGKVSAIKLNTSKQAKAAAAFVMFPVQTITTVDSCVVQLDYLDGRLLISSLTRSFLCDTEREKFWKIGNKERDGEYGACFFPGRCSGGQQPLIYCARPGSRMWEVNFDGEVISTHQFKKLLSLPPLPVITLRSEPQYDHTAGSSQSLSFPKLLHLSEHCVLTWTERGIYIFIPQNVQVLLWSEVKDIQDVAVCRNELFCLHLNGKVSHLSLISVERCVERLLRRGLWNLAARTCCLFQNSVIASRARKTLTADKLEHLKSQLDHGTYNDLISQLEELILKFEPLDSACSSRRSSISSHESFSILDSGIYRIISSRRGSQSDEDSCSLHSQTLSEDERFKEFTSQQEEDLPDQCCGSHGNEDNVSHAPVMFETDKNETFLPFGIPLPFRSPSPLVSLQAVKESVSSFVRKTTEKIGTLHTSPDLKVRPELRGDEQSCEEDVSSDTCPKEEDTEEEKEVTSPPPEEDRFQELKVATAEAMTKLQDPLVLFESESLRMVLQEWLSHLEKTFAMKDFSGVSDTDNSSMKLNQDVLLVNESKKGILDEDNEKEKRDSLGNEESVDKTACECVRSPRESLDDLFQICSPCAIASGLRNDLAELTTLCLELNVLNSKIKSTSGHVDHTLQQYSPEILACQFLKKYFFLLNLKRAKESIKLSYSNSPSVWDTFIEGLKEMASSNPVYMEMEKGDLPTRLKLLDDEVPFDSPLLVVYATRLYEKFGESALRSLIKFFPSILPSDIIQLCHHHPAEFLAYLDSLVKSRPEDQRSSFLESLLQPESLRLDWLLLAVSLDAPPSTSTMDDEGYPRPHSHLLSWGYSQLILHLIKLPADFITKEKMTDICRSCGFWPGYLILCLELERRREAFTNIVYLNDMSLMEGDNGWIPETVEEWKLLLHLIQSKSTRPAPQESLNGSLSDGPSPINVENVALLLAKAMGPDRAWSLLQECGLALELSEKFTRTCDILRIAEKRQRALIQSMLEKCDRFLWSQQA
lipoamide; [1]
  thermal stability z-score: -0.0872
lipoamide; arsenate co-treatment: none
  thermal stability z-score: 0.00734
Potassium arsenate
  thermal stability z-score: -0.219

## HPS6 (UniProt Q86YV9)
lipoamide; [1]
  thermal stability z-score: 0.00908
lipoamide; arsenate co-treatment: none
  thermal stability z-score: 0.132
Potassium arsenate
  thermal stability z-score: -0.0451

## HRSP12 (UniProt P52758)
lipoamide; [1]
  thermal stability z-score: 0.703
lipoamide; arsenate co-treatment: none
  thermal stability z-score: 0.341
Potassium arsenate
  thermal stability z-score: 0.206

## HS1BP3 (UniProt Q53T59)
lipoamide; [1]
  thermal stability z-score: -0.135
lipoamide; arsenate co-treatment: none
  thermal stability z-score: 0.097
Potassium arsenate
  thermal stability z-score: -0.105

## HS2ST1 (UniProt Q7LGA3)
Sequence of UniProt Q7LGA3 (Q7LGA3 whole entry): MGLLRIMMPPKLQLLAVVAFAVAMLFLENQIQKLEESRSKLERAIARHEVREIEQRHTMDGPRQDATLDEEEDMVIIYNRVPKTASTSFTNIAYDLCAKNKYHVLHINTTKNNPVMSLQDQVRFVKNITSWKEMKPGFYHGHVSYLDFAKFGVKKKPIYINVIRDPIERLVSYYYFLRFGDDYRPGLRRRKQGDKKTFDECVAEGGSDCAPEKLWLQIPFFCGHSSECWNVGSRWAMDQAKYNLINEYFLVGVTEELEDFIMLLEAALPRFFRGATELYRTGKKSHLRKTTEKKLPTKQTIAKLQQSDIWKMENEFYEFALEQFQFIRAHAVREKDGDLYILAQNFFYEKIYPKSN
lipoamide; [1]
  thermal stability z-score: 0.123
lipoamide; arsenate co-treatment: none
  thermal stability z-score: -0.171
Potassium arsenate
  thermal stability z-score: 0.457

## HSCB (UniProt Q8IWL3)
Sequence of UniProt Q8IWL3 (Q8IWL3 whole entry): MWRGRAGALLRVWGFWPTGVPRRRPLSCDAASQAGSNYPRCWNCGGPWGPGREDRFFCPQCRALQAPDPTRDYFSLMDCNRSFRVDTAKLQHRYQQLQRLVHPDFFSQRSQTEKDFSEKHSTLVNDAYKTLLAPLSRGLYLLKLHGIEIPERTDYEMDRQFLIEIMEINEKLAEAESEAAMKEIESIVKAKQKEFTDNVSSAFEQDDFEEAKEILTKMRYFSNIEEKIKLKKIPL
lipoamide; [1]
  thermal stability z-score: 0.0143
lipoamide; arsenate co-treatment: none
  thermal stability z-score: 0.667
Potassium arsenate
  thermal stability z-score: 0.175

## HSD17B4 (UniProt P51659)
Sequence of UniProt P51659 (P51659 whole entry): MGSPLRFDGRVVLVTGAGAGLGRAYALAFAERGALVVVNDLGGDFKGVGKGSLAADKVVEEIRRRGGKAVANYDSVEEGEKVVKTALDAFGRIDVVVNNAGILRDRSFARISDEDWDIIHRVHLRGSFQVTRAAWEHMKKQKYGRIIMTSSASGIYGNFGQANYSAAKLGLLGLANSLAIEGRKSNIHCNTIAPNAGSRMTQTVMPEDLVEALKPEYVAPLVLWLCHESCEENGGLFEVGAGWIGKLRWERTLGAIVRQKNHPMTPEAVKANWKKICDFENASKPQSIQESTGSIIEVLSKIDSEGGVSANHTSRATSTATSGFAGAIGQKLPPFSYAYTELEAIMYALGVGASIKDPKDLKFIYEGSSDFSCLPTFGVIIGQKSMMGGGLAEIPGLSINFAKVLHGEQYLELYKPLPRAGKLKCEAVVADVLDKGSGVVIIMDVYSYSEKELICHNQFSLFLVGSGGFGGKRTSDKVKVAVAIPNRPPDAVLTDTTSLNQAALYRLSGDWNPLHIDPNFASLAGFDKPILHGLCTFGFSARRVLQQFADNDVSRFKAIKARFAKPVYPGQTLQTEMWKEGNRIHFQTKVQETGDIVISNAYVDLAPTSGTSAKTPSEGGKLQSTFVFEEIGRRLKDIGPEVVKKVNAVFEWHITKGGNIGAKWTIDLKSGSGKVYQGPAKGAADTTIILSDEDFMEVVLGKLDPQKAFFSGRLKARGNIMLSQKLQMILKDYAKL
lipoamide; [1]
  thermal stability z-score: 0.258
lipoamide; arsenate co-treatment: none
  thermal stability z-score: 0.497
Potassium arsenate
  thermal stability z-score: 0.201

## HSD17B7 (UniProt P56937)
lipoamide; [1]
  thermal stability z-score: 0.202
lipoamide; arsenate co-treatment: none
  thermal stability z-score: 0.543
Potassium arsenate
  thermal stability z-score: 1.82

## HSD17B8 (UniProt Q92506)
lipoamide; [1]
  thermal stability z-score: 0.281
lipoamide; arsenate co-treatment: none
  thermal stability z-score: 0.0946
Potassium arsenate
  thermal stability z-score: -0.785

## HSD17B10 (UniProt Q99714)
Sequence of UniProt Q99714 (Q99714 whole entry): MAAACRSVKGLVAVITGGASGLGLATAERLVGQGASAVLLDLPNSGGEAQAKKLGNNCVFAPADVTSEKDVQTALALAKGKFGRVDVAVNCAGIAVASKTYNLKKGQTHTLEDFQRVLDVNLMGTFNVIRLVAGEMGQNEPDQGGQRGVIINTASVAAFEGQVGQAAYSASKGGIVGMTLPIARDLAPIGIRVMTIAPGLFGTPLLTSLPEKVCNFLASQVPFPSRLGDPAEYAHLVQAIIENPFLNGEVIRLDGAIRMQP
lipoamide; [1]
  thermal stability z-score: 0.921
lipoamide; arsenate co-treatment: none
  thermal stability z-score: 0.151
Potassium arsenate
  thermal stability z-score: -1.29

## HSD17B11 (UniProt Q8NBQ5)
lipoamide; [1]
  thermal stability z-score: 0.563
lipoamide; arsenate co-treatment: none
  thermal stability z-score: 0.342
Potassium arsenate
  thermal stability z-score: 0.265

## HSD17B12 (UniProt Q53GQ0)
lipoamide; [1]
  thermal stability z-score: 0.28
lipoamide; arsenate co-treatment: none
  thermal stability z-score: 0.0767
Potassium arsenate
  thermal stability z-score: 0.614

## HSDL1 (UniProt Q3SXM5)
lipoamide; [1]
  thermal stability z-score: -0.0659
lipoamide; arsenate co-treatment: none
  thermal stability z-score: -0.0958
Potassium arsenate
  thermal stability z-score: -1.43

## HSDL2 (UniProt Q6YN16)
Sequence of UniProt Q6YN16 (Q6YN16 whole entry): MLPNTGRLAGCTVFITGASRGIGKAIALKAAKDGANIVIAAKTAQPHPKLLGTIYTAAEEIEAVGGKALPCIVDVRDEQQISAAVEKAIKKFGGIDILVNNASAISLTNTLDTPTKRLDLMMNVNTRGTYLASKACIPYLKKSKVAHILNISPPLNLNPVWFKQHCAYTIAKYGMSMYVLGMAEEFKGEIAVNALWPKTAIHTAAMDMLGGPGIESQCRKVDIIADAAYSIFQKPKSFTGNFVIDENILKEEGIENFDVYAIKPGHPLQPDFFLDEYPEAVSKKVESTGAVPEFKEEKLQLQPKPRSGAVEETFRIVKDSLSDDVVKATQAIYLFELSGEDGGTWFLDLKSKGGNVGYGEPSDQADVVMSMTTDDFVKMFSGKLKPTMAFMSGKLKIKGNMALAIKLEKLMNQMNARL
lipoamide; [1]
  thermal stability z-score: 0.183
lipoamide; arsenate co-treatment: none
  thermal stability z-score: 0.156
Potassium arsenate
  thermal stability z-score: 0.41

## HSF1 (UniProt Q00613)
lipoamide; [1]
  thermal stability z-score: -0.332
lipoamide; arsenate co-treatment: none
  thermal stability z-score: -0.199
Potassium arsenate
  thermal stability z-score: -0.185

## HSP90AA1 (UniProt P07900)
lipoamide; [1]
  thermal stability z-score: 0.0337
lipoamide; arsenate co-treatment: none
  thermal stability z-score: 0.301
Potassium arsenate
  thermal stability z-score: 0.428

## HSP90AA4P (UniProt Q58FG1)
lipoamide; [1]
  thermal stability z-score: -1.84
lipoamide; arsenate co-treatment: none
  thermal stability z-score: -1.53
Potassium arsenate
  thermal stability z-score: -2.39

## HSP90AB1 (UniProt P08238)
lipoamide; [1]
  thermal stability z-score: -0.421
lipoamide; arsenate co-treatment: none
  thermal stability z-score: -0.166
Potassium arsenate
  thermal stability z-score: 0.108

## HSP90AB4P (UniProt Q58FF6)
lipoamide; [1]
  thermal stability z-score: 0.361
lipoamide; arsenate co-treatment: none
  thermal stability z-score: -0.21
Potassium arsenate
  thermal stability z-score: -0.635

## HSP90B1 (UniProt P14625)
lipoamide; [1]
  thermal stability z-score: -3.56
lipoamide; arsenate co-treatment: none
  thermal stability z-score: -2.61
Potassium arsenate
  thermal stability z-score: 0.54

## HSPA1B|HSPA1A
lipoamide; [1]
  thermal stability z-score: -0.148
lipoamide; arsenate co-treatment: none
  thermal stability z-score: 0.0496
Potassium arsenate
  thermal stability z-score: -0.064

## HSPA2 (UniProt P54652)
lipoamide; [1]
  thermal stability z-score: -0.295
lipoamide; arsenate co-treatment: none
  thermal stability z-score: 0.552
Potassium arsenate
  thermal stability z-score: 0.26

## HSPA4 (UniProt P34932)
lipoamide; [1]
  thermal stability z-score: 0.102
lipoamide; arsenate co-treatment: none
  thermal stability z-score: 0.475
Potassium arsenate
  thermal stability z-score: -0.388

## HSPA4L (UniProt O95757)
lipoamide; [1]
  thermal stability z-score: 0.0785
lipoamide; arsenate co-treatment: none
  thermal stability z-score: -0.0888
Potassium arsenate
  thermal stability z-score: 0.388

## HSPA5 (UniProt P11021)
lipoamide; [1]
  thermal stability z-score: -2.56
lipoamide; arsenate co-treatment: none
  thermal stability z-score: -1.9
Potassium arsenate
  thermal stability z-score: 0.434

## HSPA8 (UniProt P11142)
lipoamide; [1]
  thermal stability z-score: -0.0626
lipoamide; arsenate co-treatment: none
  thermal stability z-score: 0.357
Potassium arsenate
  thermal stability z-score: -0.107

## HSPA9 (UniProt P38646)
lipoamide; [1]
  thermal stability z-score: -1.1
lipoamide; arsenate co-treatment: none
  thermal stability z-score: -0.531
Potassium arsenate
  thermal stability z-score: -1.36

## HSPA12A (UniProt O43301)
Sequence of UniProt O43301 (O43301 whole entry): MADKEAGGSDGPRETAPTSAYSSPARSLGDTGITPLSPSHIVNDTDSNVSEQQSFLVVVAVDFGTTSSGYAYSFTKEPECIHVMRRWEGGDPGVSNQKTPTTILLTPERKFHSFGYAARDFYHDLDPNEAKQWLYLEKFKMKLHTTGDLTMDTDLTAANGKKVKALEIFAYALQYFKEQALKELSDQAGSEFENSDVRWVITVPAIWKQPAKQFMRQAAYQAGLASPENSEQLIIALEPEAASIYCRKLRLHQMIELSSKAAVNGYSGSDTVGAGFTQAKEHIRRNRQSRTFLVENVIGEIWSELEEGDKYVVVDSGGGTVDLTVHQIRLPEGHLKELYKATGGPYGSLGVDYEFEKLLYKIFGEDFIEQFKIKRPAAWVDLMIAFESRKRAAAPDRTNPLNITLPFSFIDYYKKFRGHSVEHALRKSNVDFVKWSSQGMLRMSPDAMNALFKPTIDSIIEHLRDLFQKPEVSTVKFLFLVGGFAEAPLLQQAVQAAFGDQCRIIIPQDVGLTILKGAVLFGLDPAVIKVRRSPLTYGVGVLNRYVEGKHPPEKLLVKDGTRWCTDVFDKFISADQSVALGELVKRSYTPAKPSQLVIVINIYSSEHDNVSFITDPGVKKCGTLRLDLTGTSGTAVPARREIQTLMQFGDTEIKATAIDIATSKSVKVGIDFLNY
lipoamide; [1]
  thermal stability z-score: -0.677
lipoamide; arsenate co-treatment: none
  thermal stability z-score: -0.446
Potassium arsenate
  thermal stability z-score: -0.84
